Structures are written as SMILES.

Experimental findings from ChEMBL document CHEMBL3507680, “University of Dundee, Gates Library screen for HepG2 cell viability” are described below.

This data set in a line: Human HepG2 cell viability assay in 384 well format. The class given is toxicity, cell-based. Details: dose 125 nL, time 70.5 hour; cytotoxicity at 70.5 h: concentration not given beside the values. The conditions noted are these: HepG2 cells, read-out: Inhibition.
`CC(C)C(Sc1nncn1C1CC1)C(=O)NCc1cccnc1` (stereo not given): the cytotoxicity at 70.5 h was -2.46%.
The same measure for `O=C(c1cc2c(s1)CCC2)N1CCCC1c1noc(C2CC2)n1` (stereo not given): -0.753%; for `Cc1noc(C)c1C(=O)N1CCC(Nc2cccnn2)CC1`: 0.523%; for `CCc1ncc2c(n1)CN(CC(=O)Nc1nncs1)CC2`: -7.12%.
The result for `Fc1ccccc1Oc1nccnc1C1CCN(C2CCOCC2)CC1` reads 30.2%; that for `O=C(NC1(c2nnn(Cc3ccncc3)n2)CCCC1)c1ccccc1`, -1.85%.
The result for `c1csc(CN2CCc3nnc(COc4cncnc4)n3CC2)c1` reads -6.3%.
For the molecule `O=C(c1ccncc1)N1CCN(Cc2cccnc2)c2ncccc2C1`, the cytotoxicity at 70.5 h was -8.91%.
For `O=C(CCc1ccccn1)N1CCN(C(=O)CC2CCCCC2)CC1`, the cytotoxicity at 70.5 h is -4.45%.
The same measure for `CN(c1cccc2ccccc12)S(=O)(=O)c1cc(C(=O)O)cs1`: -0.615%.
In the case of `Cn1cc(NC(=O)C2CC(=O)N(c3n[nH]c4cccc(F)c34)C2)cn1` (stereo not given), the cytotoxicity at 70.5 h is -26.5%.
Consider `COc1ccc(F)c(CN2CCCC3(CCN(C(=O)CSC)C3)C2)c1` (stereo not given), for which the cytotoxicity at 70.5 h is 8.81%.
For `Cc1nc[nH]c1-c1nccn1CCN1CCCOC1=O`, the cytotoxicity at 70.5 h was -5.03%.
The same measure for `COc1ccc(C)cc1C(=O)NC(CC(=O)O)c1cccs1` (stereo not given): -11.4%.
The result for `COc1ccc(C2OC(COc3ccc(C)cc3)=NN2C(C)=O)cc1` (stereo not given) reads 0.8%; that for `CCOCc1nc(-c2ccc(F)cc2Cl)n(C)n1`, -15.1%.
Consider `CCOCC1CCN(C(=O)C(c2ccc(F)cc2)N(C)C)CC1` (stereo not given), for which the cytotoxicity at 70.5 h is -8%.
The result for `NC(=O)c1cnn2c1NCC(CNCCCc1ccccc1)C2` (stereo not given) reads -6.83%; that for `Cc1ccc(-c2nnc([C@H]3CCN(C4CCC4)C3)o2)cc1`, 16.3%.
In the case of `CCn1nc(C)cc1C(=O)N1C[C@@H](CN(C)C)[C@@H](CO)C1`, the cytotoxicity at 70.5 h was -2.98%.
The result for `COCC1CCN(CCCc2cn[nH]c2)CC1` reads 19.8%; that for `COCCN1CCN(Cc2cccc(OCC(N)=O)c2)CC1C` (stereo not given), 10.7%.
The same measure for `CC(O)CN1CCN(Cc2cccc(C(=O)N3CCCCC3)c2)CC1` (stereo not given): 17.1%.
The result for `CC(CN1CCC2(CC1)N=C(N(C)C)NC2=O)c1ccccc1` (stereo not given) reads -12.1%; that for `CCNc1cc2c(nn1)CCN(C(=O)C(C)c1c(C)noc1C)C2` (stereo not given), -4.66%.
As for `O=C([C@H]1C[C@H]2OCC[C@H]2N(C(=O)c2ccncc2)C1)N1CCCC1`, the cytotoxicity at 70.5 h is -5.12%.
The same measure for `CC(COc1ccccc1F)NC(=O)N[C@@H]1C=C[C@H](CO)C1` (stereo not given in full): -7.04%.
In the case of `c1cnc2c(-c3nccn3C[C@@H]3CCCN4CCCC[C@H]34)cccc2c1`, the cytotoxicity at 70.5 h worked out at 2.23%.
For `CCn1c(CN(C)C)nnc1C1CCN(Cc2ccccc2)CC1`, the cytotoxicity at 70.5 h was -10.3%.
The result for `CC(C)COc1cncc(N(C)C2CCN(c3ncccn3)CC2)n1` reads -12%.
The result for `COc1c(F)cccc1C(=O)N(C)Cc1nc(-c2ccccn2)no1` reads -6.48%.
As to `CCN(CC1CCOC1)C(=O)NCc1nnc2n1CCCCC2` (stereo not given), the cytotoxicity at 70.5 h was -7.23%.
The same measure for `CCN(Cc1noc(CC(C)C)n1)Cc1cccc(F)c1O`: 12.8%.
As for `COc1ccc(CN2CC[C@@]3(C2)[C@H](O)CN(C)S3(=O)=O)cc1F`, the cytotoxicity at 70.5 h came out at 0.857%.
The result for `Cc1ccc(N2CCCC(NCc3ccc(C)o3)C2)nn1` (stereo not given) reads -7.71%; that for `CSc1ccc(OC(C)C(=O)Nc2cc(C)n[nH]2)cc1` (stereo not given), -1.12%.
The result for `CC(C)OCCCNC(=O)NC(C)c1ccc(-n2cncn2)cc1` (stereo not given) reads 0.395%; that for `Cc1nn(C)c2cnn(CC(=O)NCc3ccc(F)cc3)c12`, 12.4%.
Turning to `Cn1ccnc1N1CCN(C(=O)Cc2ccccc2)CC1`, the cytotoxicity at 70.5 h was -8.11%.
The same measure for `Cc1ccc(CN2CCc3ncnc(C4CCOC4)c3CC2)s1` (stereo not given): 2.16%.
The result for `CC(C)n1nnc2c(sc3nc(N4CCOCC4)c4c(c32)CCC4)c1=O` reads -13.1%; that for `CCn1ccc(C(=O)Nc2ccc3c(c2)C(C)(C)C(=O)N3C)n1`, -15.5%.
For `CCOc1ccccc1C(=O)Nn1c(C)cc(C)cc1=O`, the cytotoxicity at 70.5 h was -6.5%.
The result for `CN(C)C(=O)CCC(=O)NCc1cccnc1-n1cnc2ccccc21` reads -8.79%; that for `COC(=O)COc1nc(C(C)C)no1`, -10.1%.
With `Cc1cccc(CN2CCN(c3nc(CO)cs3)CC2)c1`, the cytotoxicity at 70.5 h was -4.76%.
Turning to `CCn1ncc2c1C(COCC1CC1)CN(c1ccc(C)nn1)C2` (stereo not given), the cytotoxicity at 70.5 h was -10.4%.
The same measure for `C[C@]1(O)CCN(Cc2nccs2)C[C@@H]1Oc1cccc(F)c1`: -3.49%; for `CC(CN1CCCC1=O)NC(=O)Nc1cccnc1-n1cccn1` (stereo not given): 35.4%.
The same measure for `CCOc1c(C(N)=O)cn(C)c1-c1nc2cc(NC(C)=O)ccc2n1C`: -19.2%; for `Cn1ncc2c(=O)[nH]c(CN3CCCC3Cc3ccc(F)cc3)nc21` (stereo not given): 1.17%; for `CCCN(CCC)Cc1nnsc1Cl`: -13.7%.
The same measure for `Cc1noc(C)c1CNC(=O)N1CCN(CC2CC2)CC1`: -5.87%; for `CN(C)C(=O)N1CCc2ccc(=O)[nH]c2CC1`: -3.89%.
On to `Cc1ccc(Oc2ncccc2C(=O)O)c(C)c1`, for which the cytotoxicity at 70.5 h is -4.94%.
The same measure for `O=C(c1ccncc1)N1CCC(c2nc(O)cc(-c3cccnc3)n2)C1` (stereo not given): -17.2%; for `O=C(C[C@@H]1COC[C@H]2CN(Cc3ccc(F)cc3)C[C@@H]12)N1CCOCC1`: 21.2%.
Take `CCOCCCC(=O)Nc1ccc(OCc2noc(C3CC3)n2)cc1`: the cytotoxicity at 70.5 h is 7.14%.
Turning to `COc1ccc(NC(=O)N2CCCC(CO)C2)c(C)c1` (stereo not given), the cytotoxicity at 70.5 h was -6.09%.
The same measure for `COCCN(CCOC)c1nc2c(s1)c(C)nn2C`: -13.8%; for `CC(C)C(C(=O)NCc1ccccc1-n1cccn1)N(C)C` (stereo not given): -7.79%.
The result for `Cc1n[nH]c(C(=O)NCc2ccnc(OCC(F)(F)F)c2)c1Br` reads -4.39%; that for `c1ccc(Cc2noc(CN3CCCC3Cn3cccn3)n2)cc1` (stereo not given), -7.45%; that for `O=C(NCc1cccnc1-n1cncn1)c1cc(Cl)ccn1`, 12.4%.
For the molecule `CC(C)CN1CCCn2nc(CNC(=O)CCN)cc2C1`, the cytotoxicity at 70.5 h is -6.27%.
For the molecule `CC(C)NC(=O)NCC(Cc1ccc(F)cc1)C(N)=O` (stereo not given), the cytotoxicity at 70.5 h stood at 21.5%.
The result for `CCC1(CC)Cc2ccccc2-c2nc(NCCCO)[nH]c(=O)c21` reads -14.8%; that for `Cc1cc(C)n(C2CCCN(C(=O)c3cn4cccnc4n3)C2)n1` (stereo not given), -6.47%; that for `COCc1cc(NCc2cc(F)ccc2F)n2nccc2n1`, -0.226%.
The same measure for `CCS(=O)(=O)N[C@H]1CN(Cc2noc(COC)n2)C[C@@H]1C1CC1`: -8.57%.
The result for `Cc1ccc(-c2ccc(=O)n(CC(=O)Nc3nccs3)n2)cc1` reads -4.07%.
With `Cc1c(Cl)cc(C(=O)N(CCO)Cc2nccn2C)cc1Cl`, the cytotoxicity at 70.5 h is -0.75%.
The result for `CC(C)CCN1CCc2nc(N3CCOCC3)nc(NC(C)C)c2C1` reads -16.5%; that for `CSc1ccc(NC(=O)NCC(O)C2CC2)cc1F` (stereo not given), 7.73%.
Turning to `CC(C)CNC(=O)NC(=O)C(C)Nc1cccc(CN2CCOC2=O)c1` (stereo not given), the cytotoxicity at 70.5 h was -10.8%.
The result for `CC(C)c1cc(=O)[nH]c(C(C)(C)N)n1` reads -3.05%; that for `CNc1ncccc1C(=O)N1CCN(Cc2ccc(C)cc2)C(=O)C1C` (stereo not given), -13.8%; that for `O=C1NCC2(CCCN(C(=O)Nc3cccc(-c4cscn4)c3)CC2)O1` (stereo not given), 36%.
`O=C(C1CCC1)N1CCC2(COCc3cnc(N4CCOCC4)nc32)C1` (stereo not given): the cytotoxicity at 70.5 h was found to be 8.28%.
As for `O=C(CSc1ccc(Br)cc1)NS(=O)(=O)c1ccc2c(c1)OCCO2`, the cytotoxicity at 70.5 h was 4.15%.
The same measure for `CC(C)c1nnc(CN2C(=O)OC[C@@H]2C(C)C)o1`: -5.17%.
The result for `Cc1cccc(-c2ncc(CNC(C)CO)cn2)c1` (stereo not given) reads 27.8%; that for `Cc1oncc1NS(=O)(=O)c1c[nH]c2ncccc12`, -3.88%; that for `O=C(NCC1(O)COCCN(Cc2cccc(O)c2)C1)c1cscn1` (stereo not given), -7.81%.
The same measure for `CN(Cc1ccon1)C(=O)C1CC(=O)N(Cc2cccnc2)C1` (stereo not given): -7.61%.
Turning to `CC(c1ccco1)N(C(=O)c1cc2c([nH]c1=O)CCCC2=O)C1CC1` (stereo not given), the cytotoxicity at 70.5 h is 2.68%.
The same measure for `O=C(NC1CC1)N1CCOCC2(CCN(Cc3cccs3)C2)C1` (stereo not given): -16%.
With `CC(C)Cc1ncc2c(n1)CN(C(=O)c1ccc(Cn3ccnc3)o1)C2`, the cytotoxicity at 70.5 h is -17.7%.
With `COCCn1ccc2cc(NC(=O)N(C)C(C)CSC)ccc21` (stereo not given), the cytotoxicity at 70.5 h is 1.74%.
The result for `Cc1cnn(C2CN(CC(=O)N(C)Cc3ccc(C)o3)C2)c1` reads 39.8%; that for `Cc1ccc(NC2(C(=O)NCCCc3c(C)n[nH]c3C)CCCC2)cc1`, -5.19%.
The same measure for `COCCNS(=O)(=O)c1cccc(CSC)c1`: 18.6%.
The same measure for `Cn1ccnc1COc1ccc(CN2CCN(CCO)CC2)cc1`: 15%; for `CN(C)c1ccccc1CN1CCCCC1CNS(C)(=O)=O` (stereo not given): -4.51%; for `COc1ccccc1N1CCN(C(=O)CCCS(N)(=O)=O)C(C)C1` (stereo not given): -5.3%.
For the molecule `COc1ccc(NC(=O)c2cnc(N(C)C3CCCCC3)nc2N)cc1`, the cytotoxicity at 70.5 h is 2.82%.
The result for `O=S(=O)(NC[C@H]1C[C@@H]2CCN1C[C@@H]2CN1CCCCC1)c1ccccc1` reads -6.11%; that for `COC1COC2(CCN(CC3CCOCC3)CC2)C1` (stereo not given), -11.1%; that for `Cc1ccc(CNC(=O)C2=NOC3(CCCNC3)C2)cc1` (stereo not given), -13.2%.
The same measure for `O=C(NCc1cc(C2CC2)n(C2CCCC2)n1)C1CC1`: -9.71%.
